Assay results from patent US12492173B2, “Herbicidal substituted N-tetrazolyl aryl carboxamides” (Bayer Aktiengesellschaft, priority 2019, dated 2025).

Columns and labels:
Assay type in all cases: in vivo
Stellaria media = assay: Post-emergence herbicidal action, STEME; parameters: key: % herbicidal action vs untreated; 100 = plants died, 0 = like control
In short: (§1)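 Treatment: post-emergence spray, one-leaf stage. Medium: sandy loam, greenhouse. Carrier: 600–800 l/ha water, 0.2% wetting agent. Read-out: visual % activity at ~3 weeks, untreated plants as reference.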

Hordeum murinum = assay: Pre-emergence herbicidal action, HORMU; details: dosage 320 g/ha, scored visually after 3 weeks vs untreated controls (100% = plants have died)
In short: (§2)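 Sown pots (sandy loam) sprayed pre-emergence → greenhouse → visual rating at 3 weeks; % activity vs untreated control, 100% = dead.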

Polygonum convolvulus = assay: Post-emergence herbicidal action, POLCO
In short: as §1

Amaranthus retroflexus = assay: Pre-emergence herbicidal action, AMARE; parameters: key to Herbicidal action against AMARE: % activity: 100 = plants have died, 0 = like control plants; details: for Herbicidal action against AMARE: comparative experiment, 20 g of a.i./ha; for herbicidal activity AMARE: dosage 320 g/ha, scored visually after 3 weeks vs untreated controls (100% = plants have died)
In short: as §2

Lolium rigidum = assay: Pre-emergence herbicidal action, LOLRI; details: dosage 320 g/ha, scored visually after 3 weeks vs untreated controls (100% = plants have died)
Description: 1. Pre-Emergence Herbicidal Action Against Harmful Plants Seeds of monocotyledonous and dicotyledonous weed plants and crop plants are laid out in sandy loam soil in wood-fiber pots and covered with soil. The compounds of the invention, formulated in the form of wettable powders (WP) or as emulsion concentrates (EC), are then applied to the surface of the covering soil in the form of an aqueous suspension or emulsion at a water application rate equating to 600 to 800 l/ha, with addition of 0.2% wetting agent. After the treatment, the pots are placed in a greenhouse and kept under good growth conditions for the trial plants. The damage to the test plants is scored visually after a test period of 3 weeks by comparison with untreated controls (herbicidal activity in percent (%): 100% activity=the plants have died, 0% activity=like control plants). […] The tables below illustrate, in an exemplary manner, the […] herbicidal action of the compounds according to the invention, the herbicidal activity being stated in percent. [table] In the experiments that follow, herbicidal action of numerous inventive compounds and the known compounds that are structurally closest from D1 (WO 2012/028579 A1) and D2 (WO 2018/202535 A1) were compared under the above-specified conditions by the pre-emergence and post-emergence method. The example numbers given in the tables relate to the compounds disclosed in the respective documents. In addition to the compounds disclosed in D1 and D2, the following compounds V-1 to V-14 that are encompassed by D1 or D2 but are not compounds specified therein were used in the comparative experiments: • V-1: 2-(methylsulfanyl)-3-(methylsulfinyl)-N-(1-methyl-1H-tetrazol-5-yl)-4-(trifluoromethyl)benzamide • V-2: 2-(methylsulfanyl)-3-(methylsulfonyl)-N-(1-methyl-1H-tetrazol-5-yl)-4-(trifluoromethyl)benzamide • V-3: 2,3-bis(ethylsulfanyl)-N-(1-methyl-1H-tetrazol-5-yl)-4-(trifluoromethyl)benzamide • V-4: 2-chloro-3-(ethylsulfanyl)-N-(1-methyl-1H-tetrazol-5-yl)-4-(trifluoromethyl)benzamide • V-5: 2-chloro-4-iodo-3-(methylsulfanyl)-N-(1-methyl-1H-tetrazol-5-yl)benzamide • V-6: 2-chloro-4-iodo-3-(methylsulfinyl)-N-(1-methyl-1H-tetrazol-5-yl)benzamide • V-7: 2-chloro-4-iodo-3-(methylsulfonyl)-N-(1-methyl-1H-tetrazol-5-yl)benzamide • V-8: 2-bromo-3-(methylsulfanyl)-N-(1-methyl-1H-tetrazol-5-yl)-4-(trifluoromethyl)benzamide • V-9: 2-bromo-3-(methylsulfinyl)-N-(1-methyl-1H-tetrazol-5-yl)-4-(trifluoromethyl)benzamide • V-10: 2-bromo-3-(methylsulfonyl)-N-(1-methyl-1H-tetrazol-5-yl)-4-(trifluoromethyl)benzamide • V-11: 2-bromo-3-(ethylsulfanyl)-N-(1-methyl-1H-tetrazol-5-yl)-4-(trifluoromethyl)benzamide • V-12: 2-bromo-3-(ethylsulfinyl)-N-(1-methyl-1H-tetrazol-5-yl)-4-(trifluoromethyl)benzamide • V-13: 2-bromo-3-(ethylsulfonyl)-N-(1-methyl-1-1H-tetrazol-5-yl)-4-(trifluoromethyl)benzamide • V-14: 2-cyclopropyl-3-(ethylsulfanyl)-N-(1-methyl-1H-tetrazol-5-yl)-4-(trifluoromethyl)benzamide Herbicidal Pre-Emergence Action: […]

Matricaria inodora = assay: Post-emergence herbicidal action, MATIN; parameters: key: % herbicidal action vs untreated; 100 = plants died, 0 = like control
In short: as §1

Row | Structure (SMILES) | Herbicidal action against STEME (Stellaria media; comparative experiment, post-emergence, 5 g of a.i./ha) | herbicidal action STEME (Stellaria media; post-emergence, dosage 80 g/ha) [%] | herbicidal activity HORMU (Hordeum murinum) [%] | herbicidal action POLCO (Polygonum convolvulus; post-emergence, dosage 80 g/ha) [%] | Herbicidal action against AMARE (Amaranthus retroflexus) | herbicidal activity AMARE (Amaranthus retroflexus) [%] | herbicidal activity LOLRI (Lolium rigidum) [%] | herbicidal action MATIN (Matricaria inodora; post-emergence, dosage 80 g/ha) [%] | herbicidal action STEME (Stellaria media; Dosage 80 g/ha) | herbicidal action POLCO (Polygonum convolvulus; Dosage 80 g/ha) | herbicidal action MATIN (Matricaria inodora; Dosage 80 g/ha)
1 | CSCc1c(I)ccc(C(=O)Nc2nnnn2C)c1Cl [Example 1-362] | 90 | 100 | 80 | 90 | 90 | 100 | 80 | 100 |  |  | 
2 | CCCn1nnnc1NC(=O)c1ccc(C(F)F)c(CS(=O)(=O)CC)c1Cl [Example 3-325] |  |  | 100 |  |  | 100 | 100 |  | 100 |  | 
3 | Cn1nnnc1NC(=O)c1ccc(C(F)(F)F)c(C[S+]([O-])CC(F)(F)F)c1Cl (racemic) [Example 1-312] |  | 100 | 100 | 100 |  | 100 | 90 | 100 |  |  | 
4 | Cn1nnnc1NC(=O)c1ccc(C(F)(F)F)c(CS(=O)(=O)CC2CC2)c1Cl [Example 1-316] |  |  | 90 |  |  | 100 | 90 |  | 100 | 100 | 90
5 | COCC[S+]([O-])Cc1c(C(F)(F)F)ccc(C(=O)Nc2nnnn2C)c1Cl (racemic) [Example 1-306] |  |  | 90 |  |  | 100 | 90 |  | 90 | 90 | 90
6 | CSc1c(C(=O)Nc2nnnn2C)ccc(C(F)(F)F)c1C[S+](C)[O-] (stereo not shown) [Example 1-162] |  | 100 | 80 | 90 | 100 | 100 | 90 | 100 |  |  | 
7 | Cn1nnnc1NC(=O)c1ccc(I)c(C[S+](C)[O-])c1Cl (racemic) [Example 1-363] |  | 100 | 100 |  | 100 | 100 | 100 | 100 |  |  | 
8 | CCCn1nnnc1NC(=O)c1ccc(C(F)(F)F)c(C[S+](C)[O-])c1SC (stereo not shown) [Example 3-162] |  | 100 | 100 | 100 |  | 100 | 90 | 100 |  |  | 
9 | CCn1nnnc1NC(=O)c1ccc(C(F)(F)F)c(C[S+]([O-])CC2CC2)c1Cl (stereo not shown) [Example 2-315] |  |  | 100 |  |  | 100 | 90 |  | 100 | 100 | 90
10 | Cn1nnnc1NC(=O)c1ccc(C(F)(F)F)c(C[S+]([O-])C2CC2)c1Cl (racemic) [Example 1-303] |  | 100 | 100 | 100 |  | 100 | 100 | 100 |  |  | 
11 | COCCSCc1c(C(F)(F)F)ccc(C(=O)Nc2nnnn2C)c1Cl [Example 1-305] |  | 100 | 100 | 100 |  | 100 | 90 | 100 |  |  | 
12 | CCCn1nnnc1NC(=O)c1ccc(C(F)(F)F)c(CSCC2CC2)c1Cl [Example 3-314] |  | 100 | 90 | 100 |  | 100 | 90 | 100 |  |  | 
